ChEMBL document CHEMBL1201862, “PubChem BioAssay data set” (2004)
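Growth conditions: 96-well plates. Treatment: test compound, 48 hours, 5 concentrations. Analysis: linear interpolation between bracketing concentrations; unreached endpoints set to highest concentration. The concentration for 50% growth inhibition is given as GI50.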 The source made the active and inactive calls. Rule as the data show it: active = GI50 up to about 1.1 µM and inactive = higher.

Experiments:
Assay in all cases: NCI tumour cell line growth inhibition, 48 h
HL-60 = system: HL-60
OVCAR-3 = system: OVCAR-3
UACC-257 = system: UACC-257
SF-539 = system: SF-539
HOP-92 = system: HOP-92
NCI-H226 = system: NCI-H226
UACC-62 = system: UACC-62
HT-29 = system: HT-29
DMS-273 = system: DMS-273
M19-MEL = system: M19-MEL
NCI-H522 = system: NCI-H522
RXF 631 = system: RXF 631
ACHN = system: ACHN
TK-10 = system: TK-10
A549 = system: A549
SF-268 = system: SF-268
HCT-116 = system: HCT-116
SF-295 = system: SF-295
XF498 = system: XF498
OVCAR-5 = system: OVCAR-5
SK-MEL-5 = system: SK-MEL-5
SN12C = system: SN12C
Malme-3M = system: Malme-3M
RXF 393 = system: RXF 393
SNB-75 = system: SNB-75
SR = system: SR
DLD-1 = system: DLD-1
U-251 = system: U-251
SNB-19 = system: SNB-19
MOLT-4 = system: MOLT-4
OVCAR-8 = system: OVCAR-8
EKVX = system: EKVX
K562 = system: K562
NCI-H460 = system: NCI-H460
786-0 = system: 786-0
IGROV-1 = system: IGROV-1
SK-OV-3 = system: SK-OV-3
SK-MEL-2 = system: SK-MEL-2
HOP-62 = system: HOP-62
A498 = system: A498
SW-620 = system: SW-620
CAKI-1 = system: CAKI-1
HCC 2998 = system: HCC 2998
OVCAR-4 = system: OVCAR-4
SNB-78 = system: SNB-78
M14 = system: M14
NCI-H23 = system: NCI-H23
UO-31 = system: UO-31
SK-MEL-28 = system: SK-MEL-28
KM12 = system: KM12
CCRF-CEM = system: CCRF-CEM

Measured: GI50

CCC(=O)C12OC3OC(C)(C)OC3C1OC(C)(C)O2 (stereo unspecified)
inactive: HL-60 > 100 µM | OVCAR-3 > 100 µM | UACC-257 > 100 µM | SF-539 > 100 µM | HOP-92 > 100 µM | NCI-H226 > 100 µM | UACC-62 > 100 µM | HT-29 > 100 µM | DMS-273 > 100 µM | M19-MEL > 100 µM | NCI-H522 > 100 µM | RXF 631 > 100 µM | ACHN > 100 µM | TK-10 > 100 µM | A549 > 100 µM | SF-268 > 100 µM | HCT-116 > 100 µM | SF-295 > 100 µM | XF498 > 100 µM | OVCAR-5 > 100 µM | SK-MEL-5 > 10 µM | SN12C > 100 µM | Malme-3M 9.44 µM | RXF 393 > 100 µM | SNB-75 > 100 µM | SR > 100 µM | DLD-1 > 100 µM | U-251 > 100 µM | SNB-19 > 100 µM | MOLT-4 > 100 µM | OVCAR-8 > 100 µM | EKVX > 100 µM | K562 > 100 µM | NCI-H460 > 100 µM | 786-0 > 100 µM | IGROV-1 > 100 µM | SK-OV-3 > 100 µM | SK-MEL-2 > 100 µM | HOP-62 > 100 µM | A498 > 100 µM | SW-620 > 100 µM | CAKI-1 > 100 µM | HCC 2998 > 100 µM | OVCAR-4 > 100 µM | SNB-78 > 100 µM | M14 > 100 µM | NCI-H23 > 100 µM | UO-31 > 100 µM | SK-MEL-28 > 100 µM | KM12 > 100 µM | CCRF-CEM > 100 µM
